Source: PMC6100386, “Preparation of Novel Homodimers Derived from Cytotoxic Isoquinolinequinones. A Twin Drug Approach” (Molecules : A Journal of Synthetic Chemistry and Natural …, 2018)
Read-outs that look alike come from different tables or passages of the source.

How the values were obtained:
[1] = system: MEF primary mouse embryonic fibroblasts; test: Cell growth inhibition assay (CyQuant direct cell proliferation), normal fibroblasts; type: cell-based; settings: normal mouse embryo fibroblast cell line; 72 h drug exposure; average of six independent determinations; read-out: IC50 ± SEM, MEF
Protocol: (§1) The prepared homodimers 11–15 were evaluated for their in vitro cytotoxic activity using a conventional fluorescence assay (Cyquant direct cell proliferation assays), against primary mouse embryo fibroblast cell line MEF and two cancer cells lines: […] human breast adenocarcinoma and B16-F10 murine metastatic melanoma cells, in 72 h drug exposure assays. Monoamination products 6–10 were included in these preliminary assays. […] Etoposide and taxol, used clinically as anticancer agents, were taken as positive controls.
(§2) The cell lines used in this work included MDA-MB-231 human breast adenocarcinoma cells, B16-F10 mouse melanoma cells and MEF primary mouse embryonic fibroblasts. Cells were grown in DMEM high glucose medium (Mediatech, Manassas, VA, USA) supplemented with 10% (MDA-MB-231, and B16-F10) or 15% (MEF) heat-inactivated fetal bovine serum (HyClone laboratories, South Logan, UT, USA), 100 IU/mL penicillin and 100 μg/mL streptomycin, kept at 37 °C in a 5% CO2 humidified atmosphere. For the experiments, a total of 5.000 cells/well were seeded on a flat-bottomed 96-well plate with 200 μL final volume. Six hours after seeding, the cells were incubated with the medium containing the compounds at concentrations ranging from 0 up to 100 μM dissolved in DMSO (0.1% final concentration) for 72 h. The concentrations used to calculate the IC50 values were 100.0, 30.0, 10.0, 3.0, 1.0, 0.3, 0.1, 0.01 and 0.0 μM. Untreated cells (medium containing 0.1% DMSO) were used as controls. At the end of the incubation, cell viability was measured using CyQuant® direct cell proliferation assay kits (Life Technologies, Carlsbad, CA, USA) in accordance with the manufacturer’s instructions. Briefly, 100 μL of culture medium containing the compounds under evaluation was removed from each well and replaced by 2X detection reagent. The cells were incubated for 1 h and fluorescence emission was measured at 535 nm with excitation at 480 nm in a microplate reader (Infinite 200 PRO, Tecan, Männedorf, Switzerland). At least four independent experiments were performed for each concentration. Each result was transformed to percentage of controls and the IC50 values were obtained graphically from the dose–response curves. The IC50 value was obtained by adjusting the dose–response curve to a sigmoidal curve (variable slope) generated using GraphPad Prisma 6.0 software (La Jolla, CA, USA).

[2] = system: MDA-MB-231 human breast adenocarcinoma cells; test: Cell growth inhibition assay (CyQuant direct cell proliferation), breast adenocarcinoma; type: cell-based; settings: human breast adenocarcinoma cell line, 72 h drug exposure, average of six independent determinations, read-out: IC50 ± SEM, MDA-MB 231
Protocol: as §1, §2

[3] = system: B16-F10 mouse melanoma cells; test: Cell growth inhibition assay (CyQuant direct cell proliferation), melanoma; type: cell-based; settings: murine metastatic melanoma cell line, 72 h drug exposure, average of six independent determinations, read-out: IC50 ± SEM, B16-F10
Protocol: as §1, §2

[4] = system: MDA-MB-231 and B16-F10 tumor cells (versus MEF fibroblasts); test: Cell growth inhibition assay, mean over the two tumor cell lines and selectivity versus fibroblasts; type: cell-based; settings: for SI (mean selectivity index): IC50 values for fibroblast cells / IC50 values for tumor cells (mean IC50); for IC50: mean of the IC50 values of the two tumor cell lines MDA-MB 231 and B16-F10, 72 h
Protocol: as §1, §2

IC50 [2] | IC50 [3] | IC50 ([2]; MDA-MB-231) | IC50 ([3]; Mus musculus, B16-F10) | melting point | Molecule | IC50 [1] | SI (mean selectivity index) [4] | IC50 [4] | IC50 ([4]; Fibroblast)
 |  | 0.29 ± 0.05 µM | 0.45 ± 0.08 µM | 191 to 192 °C | COC(=O)c1c(C)ncc2c1C(=O)C=C(Nc1ccc(Cc3ccc(NC4=CC(=O)c5cnc(C)c(C(=O)OC)c5C4=O)cc3)cc1)C2=O [Compound 15, Methyl-7-(4-(4-(4-(methoxycarbonyl)-3-methyl-5,8-dioxo-5,8-dihydroisoquinolin-6-ylamino)benzyl)phenylamino)-3-methyl-5,8-dioxo-5,8-dihydroisoquinoline-4-carboxylate] | 2.58 ± 0.33 µM | 6.97 |  | 0.37 µM
 |  | 0.32 ± 0.07 µM | 0.38 ± 0.06 µM |  | CC(=O)O[C@H]1C(=O)[C@@]2(C)[C@H]([C@H](OC(=O)c3ccccc3)[C@]3(O)C[C@H](OC(=O)[C@H](O)[C@@H](NC(=O)c4ccccc4)c4ccccc4)C(C)=C1C3(C)C)[C@]1(OC(C)=O)CO[C@@H]1C[C@@H]2O [Taxol, reference compound] | 0.32 ± 0.05 µM | 0.91 |  | 0.35 µM
 |  | 5.34 ± 0.12 µM | 2 ± 0.44 µM |  | COc1cc([C@@H]2c3cc4c(cc3[C@@H](O[C@@H]3O[C@@H]5CO[C@@H](C)O[C@H]5[C@H](O)[C@H]3O)[C@H]3COC(=O)[C@H]23)OCO4)cc(OC)c1O [Etoposide, reference compound] | 1.18 ± 0.4 µM | 0.32 |  | 3.67 µM
55.6 ± 5.95 µM | 48.6 ± 4.42 µM |  |  |  | CC(=O)c1c(C)nc(C)c2c1C(=O)C=C(Nc1ccc(Cc3ccc(NC4=CC(=O)c5c(C(C)=O)c(C)nc(C)c5C4=O)cc3)cc1)C2=O [Compound 12, 7,7′-(4,4′-Methylenebis(4,1-phenylene)bis(azanediyl))bis(4-acetyl-1,3-dimethylisoquinoline-5,8-dione)] | 71.6 ± 6.39 µM | 1.37 | 52.1 µM | 
 |  | 24.8 ± 4.78 µM | 66.3 ± 5.61 µM |  | COC(=O)c1c(C)ncc2c1C(=O)C=C(Nc1ccc(Cc3ccc(NC4=CC(=O)c5c(cnc(C)c5C(=O)OC)C4=O)cc3)cc1)C2=O [Compound 13, Dimethyl-7,7′-(4,4′-methylenebis(4,1-phenylene)bis(azanediyl))bis(3-methyl-5,8-dioxo-5,8-dihydroisoquinoline-4-carboxylate)] | 79.8 ± 9.27 µM | 1.75 |  | 45.6 µM
7.98 ± 1.43 µM | 5.83 ± 0.73 µM |  |  |  | CC(=O)c1c(C)ncc2c1C(=O)C=C(Nc1ccc(Cc3ccc(NC4=CC(=O)c5c(cnc(C)c5C(C)=O)C4=O)cc3)cc1)C2=O [Compound 14, 7,7′-(4,4′-Methylenebis(4,1-phenylene)bis(azanediyl))bis(4-acetyl-3-methylisoquinoline-5,8-dione)] | 32.8 ± 3.38 µM | 4.74 | 6.91 µM | 

The next lines start with the molecule.

Molecule | IC50 [2] | IC50 [3] | IC50 ([2]; MDA-MB-231) | IC50 ([3]; Mus musculus, B16-F10) | melting point | IC50 [1] | SI (mean selectivity index) [4] | IC50 [4] | IC50 ([4]; Fibroblast)
4-Acetyl-6-((4-(4-aminobenzyl)phenyl)amino)-3-methylisoquinoline-5,8-dione [Compound 10] | 2.75 ± 0.42 µM | 2.17 ± 0.37 µM |  |  |  | 5.14 ± 0.69 µM | 2.09 | 2.46 µM | 
CC(=O)c1c(C)nc(C)c2c1C(=O)C=C(Nc1ccc(Cc3ccc(N)cc3)cc1)C2=O [Compound 7] | 19.5 ± 1.46 µM | 7.14 ± 0.95 µM |  |  |  | 15.4 ± 1.97 µM | 1.15 | 13.3 µM | 
COC(=O)c1c(C)nc(C)c2c1C(=O)C=C(Nc1ccc(Cc3ccc(NC4=CC(=O)c5c(C(=O)OC)c(C)nc(C)c5C4=O)cc3)cc1)C2=O [Compound 11] |  |  | 66.9 ± 6.13 µM | > 100 µM | 199 to 200 °C | > 100 µM | 0.30 |  | 
COC(=O)c1c(C)ncc2c1C(=O)C=C(Nc1ccc(Cc3ccc(N)cc3)cc1)C2=O [Compound 8] |  |  | 1.45 ± 0.31 µM | 3.31 ± 0.47 µM | 83 to 84 °C | 5.54 ± 0.82 µM | 2.33 |  | 2.38 µM
CC(=O)c1c(C)ncc2c1C(=O)C=C(Nc1ccc(Cc3ccc(N)cc3)cc1)C2=O [Compound 9] | 1.59 ± 0.37 µM | 0.76 ± 0.21 µM |  |  |  | 2.79 ± 0.44 µM | 2.36 | 1.18 µM | 
COC(=O)c1c(C)nc(C)c2c1C(=O)C=C(Nc1ccc(Cc3ccc(N)cc3)cc1)C2=O [Compound 6] |  |  | 2.46 ± 0.39 µM | 6.16 ± 0.88 µM | 149 to 150 °C | 8.87 ± 0.88 µM | 2.06 |  | 4.31 µM
